Laboratory results reported in publication PMC12372228 (Journal of the American Chemical Society, 2025).

What was measured:
[1] = tested on: healthy mice; conditions: dose used is near the reported MTD; cited from earlier work
[2] = tested on: HCT-116 tumors; assay: Antitumor efficacy in nude mice bearing HCT-116 tumors; format: in vivo; conditions: 66.7 mg/kg i.v. on days 1, 5, 9; n = 5
[3] = tested on: HT-29 tumors; assay: Antitumor efficacy in nude mice bearing HT-29 tumors; format: in vivo; conditions: 66.7 mg/kg i.v. on days 1, 5, 9
[4] = tested on: HT-29 colon cancer cells; assay: In vitro cytotoxicity, HT-29 colon cancer cells; format: cell-based; conditions: Homo sapiens, HT-29, 72 h
[5] = tested on: HCT-116 colon cancer cells; assay: In vitro cytotoxicity, HCT-116 colon cancer cells; conditions: Homo sapiens, HCT-116, 72 h

Structure (SMILES) | reported maximum tolerated dose (MTD) [1] | median survival [2] | median survival ([3]; n = 5 (TT 1 study)) | median survival ([3]; n = 7 (TT 7E study)) | IC50 [4] | IC50 [5]
CCc1c2c(nc3ccc(OC(=O)N4CCC(N5CCCCC5)CC4)cc13)-c1cc3c(c(=O)n1C2)COC(=O)[C@]3(O)CC [irinotecan] | ~66.7 mg/kg | 23 days | 33 days | 41 days | – | –
CC[C@@]1(O)C(=O)OCc2c1cc1n(c2=O)Cc2cc3ccccc3nc2-1 [CPT, camptothecin] | – | – | – | – | 64 nM | 40 nM
